Data: patent US20120004200A1, “TOPICAL PHARMACEUTICAL COMPOSITION CONTAINING A WATER-SENSITIVE ACTIVE PRINCIPLE” (GALDERMA S.A., priority 2008, published 2012)
Read-outs that look alike come from different tables or passages of the source.

Experiments:
[1] = Stability of rucinol in various solvent oils; type: physicochemical; details: 40° C., T 1 month, 5% rucinol
Method: The preparations are prepared according to the following proportions: 5% of rucinol, a sufficient amount of solvent oil to obtain 100%.
(§1) Assay technique by HPLC against reference substance.

[2] = T 3 months, 4% hydroquinone
Method: The preparations are prepared according to the following proportions: 4% of hydroquinone, a sufficient amount of solvent oil to obtain 100%.
as §1

[3] = Stability of ivermectin in various solvent oils; type: physicochemical; details: 40° C., T 1 month, 1% ivermectin
Method: The preparations are prepared according to the following proportions: 1% of ivermectin, a sufficient amount of solvent oil to obtain 100%.
as §1

[4] = Stability of calcitriol in various solvent oils; type: physicochemical; details: RT
Method: In order to optimize the dissolution of the active agent to be incorporated into the compositions according to the invention, stability tests are performed in various solvent oils: The preparations are prepared according to the following proportions: 0.00666% of calcitriol/0.29629% of BHT, a sufficient amount of solvent oil to obtain 100%. Assay technique by HPLC against reference substance.

## CCCCc1ccc(O)cc1O [Rucinol, rucinol]
[1]; solvent PEG-8 caprylic/capric triglycerides
  % Rucinol (% LC): 100 % LC
[1]; solvent PEG-35 castor oil
  % Rucinol (% LC): 96 % LC
[1]; solvent PPG-15 stearyl ether
  % Rucinol (% LC): 95 % LC
[1]; solvent caprylic/capric triglycerides
  % Rucinol (% LC): 99 % LC

## Oc1ccc(O)cc1 [Hydroquinone, hydroquinone]
[2]; solvent PPG-15 stearyl ether, 40° C.
  % Hydroquinone/To: 96.00%
[2]; solvent caprylic/capric triglycerides, 40° C.
  % Hydroquinone/To: 95.00%
[2]; solvent diisopropyl adipate, temperature not given
  % Hydroquinone/To: 97.4%

## ivermectin
[3]; solvent PPG-15 stearyl ether
  % Ivermectin/To: 98.07%
[3]; solvent benzyl alcohol
  % Ivermectin/To: 98.6%
[3]; solvent diisopropyl adipate
  % Ivermectin/To: 96.7%
[3]; solvent phenoxyethanol
  % Ivermectin/To: 98.6%

## C=C1/C(=C\C=C2/CCC[C@]3(C)[C@@H]([C@H](C)CCCC(C)(C)O)CC[C@@H]23)C[C@@H](O)C[C@@H]1O [Calcitriol, calcitriol]
[4]; solvent PPG-15 stearyl ether, T 1 month
  % Calcitriol/To: 100.00%
[4]; solvent caprylic/capric triglycerides, T 1 month, 0.00666% calcitriol, 0.29629% BHT
  % Calcitriol/To: 100.3%
[4]; solvent caprylic/capric triglycerides, T 3 months
  % Calcitriol/To: 99.9%
[4]; solvent diisopropyl adipate, T 1 month
  % Calcitriol/To: 101.5%
[4]; solvent diisopropyl adipate, T 3 months
  % Calcitriol/To: 97.2%
[4]; solvent octyldodecanol, T 1 month
  % Calcitriol/To: 98.3%
[4]; solvent octyldodecanol, T 3 months
  % Calcitriol/To: 95.00%
